Reference: patent US20160324852A1, “COMPOSITIONS AND METHODS OF TREATING A NEURODEGENERATIVE DISEASE” (Axovant Sciences Ltd., priority 2015, published 2016)

Assays:
[1] = study SB742457/005, pharmacokinetics in elderly subjects; format: in vivo, human; details: for Cmax: human, plasma
Method: (§1) The 35 mg dose was evaluated in four Phase 2 trials and is the dose being evaluated in a Phase 3 pivotal study. In the AZ310866 Phase 2b study, there was a dose dependent increase in efficacy vs placebo in the ADAS-Cog score between 15 mg (−0.7 units) and 35 mg (−1.7 units). […] These benefits need to be balanced with the potential for adverse events, in particular, the CNS toxicity observed in dogs and rabbits described below. […] In the 26-week dog study, one high-dose dog had seizures on Day 55 and was euthanized. A second dog had seizures on Day 59 and survived. For the second dog, plasma samples taken approximately 5 minutes and two hours after the seizure (4 and 6 hours post dose on Day 59) had SB742457 concentrations of 1570 and 1440 ng/mL, respectively. […] In study SB742457/005, elderly subjects received 35 mg once daily of 3-phenylsulfonyl-8-piperazinyl-1yl-quinoline for 28 days. […] This mean value is approximately ¼th the Cmax value observed in dogs with seizures. The maximum concentration that may be achieved is approximately ½ the Cmax value observed in the 2 dogs with seizures. To further understand the risk to humans, SimCYP population PBPK modelling was used to predict brain concentrations of 3-phenylsulfonyl-8-piperazinyl-1yl-quinoline in dogs exposed to the concentrations linked with seizures, and to compare these with predicted human brain concentrations at the clinical dose of 35 mg. The simulations predicted that the human steady-state brain concentrations following repeat administration with 35 mg would be approximately 40-fold lower than the brain concentrations associated with seizures in dogs. Assuming linear pharmacokinetics, the human steady-state brain concentrations with 70 mg would be approximately 20-fold lower than the brain concentrations associated with convulsions in dogs. […] Furthermore, in Phase 2 studies encompassing 1024 patients with Alzheimer's disease at doses of 5 mg to 35 mg per day, two subjects reported seizures, both in the Phase 2b study with 3-phenylsulfonyl-8-piperazinyl-1yl-quinolone administered as adjunctive therapy to donepezil. One subject was in the placebo group and one in the 15 mg 3-phenylsulfonyl-8-piperazinyl-1yl-quinoline group. The subject receiving 3-phenylsulfonyl-8-piperazinyl-1yl-quinoline was hospitalized with a suspicion of a TIA and experienced a seizure, which was reported by the PI as not attributable to study drug.

clinical = details: human, in vivo
rats = assay: nonclinical studies, seizures in rats; format: in vivo
[2] = tested on: patients with Alzheimer's disease; assay: Phase 2 studies in 1024 patients with Alzheimer's disease, seizures; format: in vivo; details: 15 mg group, Phase 2b study, adjunctive therapy to donepezil; reported as not attributable to study drug
Method: (§2) The 35 mg dose was evaluated in four Phase 2 trials and is the dose being evaluated in a Phase 3 pivotal study. In the AZ310866 Phase 2b study, there was a dose dependent increase in efficacy vs placebo in the ADAS-Cog score between 15 mg (−0.7 units) and 35 mg (−1.7 units). […] These benefits need to be balanced with the potential for adverse events, in particular, the CNS toxicity observed in dogs and rabbits described below. […] In the 26-week dog study, one high-dose dog had seizures on Day 55 and was euthanized. A second dog had seizures on Day 59 and survived. For the second dog, plasma samples taken approximately 5 minutes and two hours after the seizure (4 and 6 hours post dose on Day 59) had SB742457 concentrations of 1570 and 1440 ng/mL, respectively. […] In study SB742457/005, elderly subjects received 35 mg once daily of 3-phenylsulfonyl-8-piperazinyl-1yl-quinoline for 28 days. […] This mean value is approximately ¼th the Cmax value observed in dogs with seizures. The maximum concentration that may be achieved is approximately ½ the Cmax value observed in the 2 dogs with seizures. […]

healthy subjects = assay: clinical studies with healthy subjects (n=225), seizures; format: in vivo; details: single doses of up to 175 mg and repeat doses of up to 50 mg for 13 days
Method: as §2

[3] = tested on: healthy rat brain glucose utilization; assay: FDG-PET/CT brain glucose utilization in healthy rats; format: in vivo; details: healthy young CD rats, 10 mg/kg or 20 mg/kg 3 h prior to FDG; pairwise comparisons did not reach statistical significance
Text: 3-phenylsulfonyl-8-piperazinyl-1yl-quinoline is a potent antagonist of the 5-hydroxytryptamine 6 (5-HT6) serotonin receptor. Reduced glucose utilization is an early sign of decreasing brain function in AD. Altered neuronal glucose uptake assessed by flurodeoxyglucose-positron emission tomography (FDG-PET) may be useful as a diagnostic foundation for identifying patients with AD. This study evaluates 3-phenylsulfonyl-8-piperazinyl-1yl-quinoline at clinically relevant doses on healthy rat brain glucose utilization using FDG-PET/CT.
Methods: Healthy, young CD rats were pre-dosed with vehicle (1% methylcellulose, w/v) or RVT-101 (10 mg/kg or 20 mg/kg) 3 h prior to FDG (18.1±3.5 MBq, i.v.). Brain FDG standard uptake values (SUV) were quantified using scanning in single 20 min list mode (BioPET/CT, Sedecal) starting 30 min post FDG dosing. PET/CT scans were analyzed as a single time frame summarizing counts over 20 min. All experiments were completed in an accredited facility according to NIH guidelines. PET/CT imaging data were analyzed using Student's t-test, cluster analysis, and multivariate analysis of variance (MANOVA) using a subset of SUV from 5 cluster-identified regions.

[4] = rat maximal electroshock seizure threshold test; details: in vivo, exposure at which seizure threshold was not decreased, read-out: extrapolated Cmax
Method: as §2

[5] = tested on: patients with Alzheimer's disease; assay: AZ310866 Phase 2b study, ADAS-Cog score vs placebo; format: in vivo, human
Method: as §2

in vivo = details: dog
Method: as §1

dogs = assay: in vivo; details: dog
Method: as §1

rabbits = assay: nonclinical studies, seizures in rabbits; format: in vivo
Method: as §2

mice = assay: nonclinical studies, seizures in mice; format: in vivo

With `O=S(=O)(c1ccccc1)c1cnc2c(N3CCNCC3)cccc2c1` [3-phenylsulfonyl-8-piperazinyl-1yl-quinoline] the Cmax ([1]; both sexes, 35 mg, elderly subjects, 35 mg once daily for 28 days, read-out: highest recorded Cmax) was 307 ng/mL, the Cmax ([1]; female, 35 mg, elderly females, 35 mg once daily for 28 days, read-out: mean Cmax) was 177 ng/mL and the “expected maximum concentration at 70 mg relative to the Cmax observed in the 2 dogs with seizures” value ([1]; human 70 mg vs dog) was “approximately ½”. The “expected mean Cmax at 70 mg relative to the Cmax observed in dogs with seizures” value ([1]; human 70 mg vs dog) was “approximately ¼”, the Cmax ([1]; oral, 70 mg, multiple dosing with 70 mg, extrapolated given linear human pharmacokinetics, read-out: expected maximum Cmax) was 714 ng/mL and the Cmax ([1]; oral, 70 mg, multiple dosing with 70 mg, extrapolated given linear human pharmacokinetics, read-out: expected mean Cmax) was roughly 360 ng/mL. The Cmax ([1]; male, 35 mg, elderly males, 35 mg once daily for 28 days, read-out: mean Cmax) was 181 ng/mL, the AUC (clinical) was roughly 3200 ng·h/mL and the AUC(0-inf) (clinical) was roughly 9250 ng·h/mL. The Cmax (clinical; Cmax) was roughly 293 ng/mL, the Cmax (clinical; mean Cmax) was roughly 180 ng/mL and the seizures (rats) was “not in rodents”. The subjects reporting seizures [2] was “one”, the seizures (healthy subjects) was “no seizures were observed” and the “brain glucose uptake (FDG SUV)” value [3] was “trend of increased glucose uptake”. The Cmax [4] was 1890 ng/mL, the “increase in efficacy vs placebo in the ADAS-Cog score” value ([5]; 15 mg) was −0.7 units and the “increase in efficacy vs placebo in the ADAS-Cog score” value ([5]; 35 mg) was −1.7 units. The Cmax (in vivo) was 1700 ng/mL, the concentration at 4 h post dose on Day 59 (in vivo) was 1570 ng/mL and the concentration at 6 h post dose on Day 59 (in vivo) was 1440 ng/mL. For the same compound, the “plasma concentration associated with an increased seizure risk” value (dogs) was greater than 1570 ng/mL, the plasma concentrations achieved (dogs) was “up to 1937 ng/mL” and the seizures (dogs; 7.5 mg/kg/day) was “did not occur”. The seizures (rabbits; nonclinical studies) was “caused seizures”, the seizures (rabbits; single dose at 300 mg/kg, exceeded the maximum tolerated repeat-dose level) was “seizures were produced” and the seizures (mice) was “not in rodents”.
